For one data set, the system named is cFos mRNA. Nature of the data set: cFos mRNA induction in cortex of wild-type mice (quantitative PCR). Format: in vivo, C57BL/6J male mice. Particulars: one hour after administration. As for the experimental part:
Compound administration and brain tissue collection.
Quantification of cFos mRNA induction. Tissue homogenization was performed using TissueLyser system for 96 well plates (Qiagen). First, frozen cortical samples were thawed, removed from RNAlater, and placed into TissueLyser tubes along with Buffer RLT containing 0.5% Reagent DX and one 5 mm TissueLyser metal bead. The TissueLyser tubes were loaded into a TissueLyser II tissue homogenizer for 3 rounds of homogenization, with each round lasting 5 minutes at 30 Hz bead-beating frequency. Total RNA was purified from the homogenate using RNeasy 96 Plus kit (Qiagen), RNA concentration and A260/A280 ratio were quantified via the Nanodrop (ThermoFisher), and all samples were normalized to 100 ng/μl concentration. RNA was reverse transcribed into cDNA using the Superscript III First-strand synthesis SuperMix Kit (ThermoFisher). For each sample, 6 μl of RNA (600 ng total) was mixed with 1 μL of Oligo dT and 1 μL of annealing buffer and heated to 65° C. for 5 minutes. Next, 10 μL of 2× First-Strand Reaction Mix and 2 μL of the Enzyme mix were added to achieve a total reaction volume of 20 μL. The samples were heated to 50° C. for 50 minutes then 85° C. for 5 minutes to complete cDNA synthesis.
Quantitative PCR was performed on the cDNA samples using Quantitect Multiplex RT-PCR kit (Qiagen) in a 384-well assay format. Each PCR well contained 2 μL of cDNA (60 ng total), 10 μL of RT-PCR mastermix, 1 μL of cFos FAM Taqman probe (Mm00487425_m1 (FAM) #4351368), 1 μL of GAPDH VIC Taqman probe (Mm99999915-g1 (VIC) #4448486), 0.2 μL of Multiplex RT mix and 5.8 μl of RNase-free water. On the ViiA7 Real-Time PCR system (ThermoFisher), the samples were heated to 95° C. for 15 minutes then cycled between 94° C. for 45 seconds and 60° C. for 45 seconds for 45 cycles. cFos Ct values were exported, normalized to GAPDH Ct values, and converted to relative fold change in expression using the delta-delta Ct relative quantification method. cFos fold changes between compound treatments and vehicle were analyzed by one-way ANOVA, followed by Tukey's post-hoc comparisons.

The target in data set [1] is T1, human Cav1.2 (Homo sapiens, UniProt Q13936).
T1 sequence (Q13936 whole entry): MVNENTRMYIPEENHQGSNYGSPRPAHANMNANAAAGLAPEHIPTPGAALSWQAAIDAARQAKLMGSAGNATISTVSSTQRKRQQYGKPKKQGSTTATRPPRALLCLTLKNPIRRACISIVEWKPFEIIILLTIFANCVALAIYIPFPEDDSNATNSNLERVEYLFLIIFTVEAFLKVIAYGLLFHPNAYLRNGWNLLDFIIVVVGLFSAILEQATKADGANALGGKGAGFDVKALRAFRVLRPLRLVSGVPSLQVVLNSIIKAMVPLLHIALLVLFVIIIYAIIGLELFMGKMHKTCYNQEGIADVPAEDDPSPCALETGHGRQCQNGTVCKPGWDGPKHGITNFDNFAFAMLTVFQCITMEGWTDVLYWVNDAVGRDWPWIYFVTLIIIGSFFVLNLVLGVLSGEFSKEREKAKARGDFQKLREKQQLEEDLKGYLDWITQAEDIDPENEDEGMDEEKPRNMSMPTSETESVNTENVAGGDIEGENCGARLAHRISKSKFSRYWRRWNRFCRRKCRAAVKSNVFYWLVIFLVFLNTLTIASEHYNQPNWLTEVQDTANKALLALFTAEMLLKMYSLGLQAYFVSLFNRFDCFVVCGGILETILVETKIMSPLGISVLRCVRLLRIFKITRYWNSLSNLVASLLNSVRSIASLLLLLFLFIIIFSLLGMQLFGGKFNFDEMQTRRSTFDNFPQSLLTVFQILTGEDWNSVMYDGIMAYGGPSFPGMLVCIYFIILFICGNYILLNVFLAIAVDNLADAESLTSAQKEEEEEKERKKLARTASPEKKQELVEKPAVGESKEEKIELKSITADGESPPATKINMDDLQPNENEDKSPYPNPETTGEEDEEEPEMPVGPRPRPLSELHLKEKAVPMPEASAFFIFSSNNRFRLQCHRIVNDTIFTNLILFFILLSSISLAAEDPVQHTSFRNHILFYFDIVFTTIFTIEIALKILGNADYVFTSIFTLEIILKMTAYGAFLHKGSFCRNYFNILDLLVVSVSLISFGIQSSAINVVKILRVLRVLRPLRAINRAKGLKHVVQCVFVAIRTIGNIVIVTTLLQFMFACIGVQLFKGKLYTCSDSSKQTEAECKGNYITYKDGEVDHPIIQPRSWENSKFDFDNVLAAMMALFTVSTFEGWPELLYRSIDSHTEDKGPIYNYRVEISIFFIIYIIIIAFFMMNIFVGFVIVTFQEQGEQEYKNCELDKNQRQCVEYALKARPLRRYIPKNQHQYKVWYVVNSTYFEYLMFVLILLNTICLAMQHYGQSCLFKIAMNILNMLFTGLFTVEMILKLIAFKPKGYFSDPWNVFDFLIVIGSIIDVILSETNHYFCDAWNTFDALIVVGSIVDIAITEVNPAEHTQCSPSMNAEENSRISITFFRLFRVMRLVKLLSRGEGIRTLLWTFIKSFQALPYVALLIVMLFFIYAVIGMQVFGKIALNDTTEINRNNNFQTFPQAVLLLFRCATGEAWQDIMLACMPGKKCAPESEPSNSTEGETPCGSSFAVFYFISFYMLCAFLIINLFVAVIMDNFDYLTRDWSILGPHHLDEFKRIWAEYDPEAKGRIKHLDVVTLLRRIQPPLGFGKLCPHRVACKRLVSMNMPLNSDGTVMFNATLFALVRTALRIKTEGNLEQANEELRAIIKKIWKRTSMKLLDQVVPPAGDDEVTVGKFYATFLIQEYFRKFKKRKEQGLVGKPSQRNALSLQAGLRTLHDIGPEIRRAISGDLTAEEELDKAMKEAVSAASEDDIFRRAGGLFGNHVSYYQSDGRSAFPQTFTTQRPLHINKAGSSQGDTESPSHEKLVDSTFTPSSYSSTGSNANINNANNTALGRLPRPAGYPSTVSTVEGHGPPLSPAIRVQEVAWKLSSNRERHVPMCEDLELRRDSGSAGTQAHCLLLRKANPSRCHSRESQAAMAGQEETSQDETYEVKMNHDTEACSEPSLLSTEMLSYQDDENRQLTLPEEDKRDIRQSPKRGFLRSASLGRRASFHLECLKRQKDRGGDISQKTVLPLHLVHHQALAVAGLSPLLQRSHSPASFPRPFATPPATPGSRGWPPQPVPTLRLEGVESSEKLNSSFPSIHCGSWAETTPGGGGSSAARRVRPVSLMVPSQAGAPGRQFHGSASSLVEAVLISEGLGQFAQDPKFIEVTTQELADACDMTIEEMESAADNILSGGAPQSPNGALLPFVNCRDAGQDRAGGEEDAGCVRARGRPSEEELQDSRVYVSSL
T1 sequence (Q9NY47 19-1001 partner limits assumed): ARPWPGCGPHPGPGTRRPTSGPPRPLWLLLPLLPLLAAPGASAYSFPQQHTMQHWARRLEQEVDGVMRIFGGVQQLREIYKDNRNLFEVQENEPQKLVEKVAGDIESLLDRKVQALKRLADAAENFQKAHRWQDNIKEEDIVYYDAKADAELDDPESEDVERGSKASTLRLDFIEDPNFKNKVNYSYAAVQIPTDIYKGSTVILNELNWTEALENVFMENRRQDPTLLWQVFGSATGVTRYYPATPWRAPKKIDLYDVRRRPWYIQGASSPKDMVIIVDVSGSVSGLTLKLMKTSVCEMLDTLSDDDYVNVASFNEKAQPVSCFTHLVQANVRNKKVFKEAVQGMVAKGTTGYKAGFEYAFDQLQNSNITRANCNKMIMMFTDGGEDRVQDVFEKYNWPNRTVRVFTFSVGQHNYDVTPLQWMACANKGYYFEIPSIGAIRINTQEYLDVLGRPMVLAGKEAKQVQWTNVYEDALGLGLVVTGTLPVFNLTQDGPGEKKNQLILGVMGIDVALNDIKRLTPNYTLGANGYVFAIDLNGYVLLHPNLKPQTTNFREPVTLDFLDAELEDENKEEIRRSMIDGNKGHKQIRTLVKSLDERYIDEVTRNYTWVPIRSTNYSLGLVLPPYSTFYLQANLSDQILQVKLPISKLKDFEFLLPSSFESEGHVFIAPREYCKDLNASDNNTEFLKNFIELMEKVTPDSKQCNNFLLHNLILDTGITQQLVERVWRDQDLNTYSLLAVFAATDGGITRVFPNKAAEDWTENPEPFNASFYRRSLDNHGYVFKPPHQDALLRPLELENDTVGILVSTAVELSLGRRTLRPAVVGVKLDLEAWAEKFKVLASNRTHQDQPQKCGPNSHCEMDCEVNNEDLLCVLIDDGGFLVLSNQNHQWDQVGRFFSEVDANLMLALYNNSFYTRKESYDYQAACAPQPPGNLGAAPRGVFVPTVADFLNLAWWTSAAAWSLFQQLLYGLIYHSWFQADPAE
T1 sequence (Q9NY47 1002-1150 partner limits assumed): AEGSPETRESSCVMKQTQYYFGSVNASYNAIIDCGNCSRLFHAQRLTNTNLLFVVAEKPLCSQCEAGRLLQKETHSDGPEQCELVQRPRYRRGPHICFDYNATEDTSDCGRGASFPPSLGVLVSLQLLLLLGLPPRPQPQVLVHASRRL
T1 sequence (Q08289 whole entry partner): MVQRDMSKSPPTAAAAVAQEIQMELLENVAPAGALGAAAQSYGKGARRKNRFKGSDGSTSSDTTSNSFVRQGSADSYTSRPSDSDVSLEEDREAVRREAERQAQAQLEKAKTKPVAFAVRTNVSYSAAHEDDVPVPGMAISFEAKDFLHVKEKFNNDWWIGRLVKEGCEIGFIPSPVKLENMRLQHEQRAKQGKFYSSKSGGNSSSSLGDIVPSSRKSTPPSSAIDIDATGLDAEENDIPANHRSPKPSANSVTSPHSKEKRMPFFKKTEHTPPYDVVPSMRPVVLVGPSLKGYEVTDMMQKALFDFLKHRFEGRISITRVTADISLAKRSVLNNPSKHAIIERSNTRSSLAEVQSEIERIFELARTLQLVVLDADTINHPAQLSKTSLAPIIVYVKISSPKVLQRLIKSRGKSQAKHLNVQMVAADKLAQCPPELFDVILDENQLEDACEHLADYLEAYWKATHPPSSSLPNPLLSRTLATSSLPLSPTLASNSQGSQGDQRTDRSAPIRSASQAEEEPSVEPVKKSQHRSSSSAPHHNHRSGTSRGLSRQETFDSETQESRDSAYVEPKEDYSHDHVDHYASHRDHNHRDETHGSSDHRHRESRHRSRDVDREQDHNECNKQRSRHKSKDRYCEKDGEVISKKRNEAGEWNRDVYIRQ
Procedure: (§1) 24 hours prior an electrophysiology experiment, doxycycline (1 μg/ml) was added to the growth medium (Table 1), and 25 μM of verapamil was co-applied to prevent calcium influx triggered cell death. Cell confluency should reach 70%-80% right before the experiment.
(§2) To harvest cells (from a T175 cm^2 flask as an example), growth media were removed completely, and the cells were rinsed with 10 mL of D-PBS. D-PBS was aspirated, and 10 mL of Detachin (Genlantis) was added and the plate was placed in a 37° C. incubator for 10 minutes. Detached cells were placed into a 15 mL conical tube and spun at 1000 rpm for 2 minutes. Supernatant was removed, and cells were re-suspended in QPatch complete media (Table 2) to desired cell density of 1.5-3 million cells per QPatch run. Each experimental run uses 1.5 mL of cells.
(§3) The cells suspension was taken to the Sophion QPatch platform that uses whole-cell voltage clamp to measure barium currents conducted through Cav1.2 on single-hole QPlates. […] A dose-response assay protocol was used to determine the maximal fold change of peak inward current (Emax) and potency (EC50) of each compound. The protocol had eight liquid periods. The first liquid period was to stabilize current amplitude, which was monitored using repetitive 200-ms voltage pulses stepping from −80 mV to 0 mV. The second liquid period was to determine baseline current amplitude in the presence of vehicle control, using a single 20-ms voltage pulse stepping from −80 mV to 0 mV. The third through eighth liquid periods were used to ascertain a 6-dose response to compound treatments, also using single 20-ms voltage pulses stepping from −80 mV to 0 mV. The EC50 was generated using the following equation Iconcentration=Ibase+(Ifull−Ibase)*c^n/(XC50^n+c^n), where c is the concentration and n is the Hill coefficient constant. Ifull is the maximal current achievable, and Ibase is 0.
The conditions of data set [2]: mouse, in vivo, ip.
Procedure: (§4) Compound administration and brain tissue collection. Wild-type C57BL/6J male mice were obtained from Jackson laboratories (Bar Harbor, Me.). The acute, single-dose effects of Cav1.2 activators of the present disclosure were evaluated in male eight-week old mice (n=6 mice per compound). Each compound was dissolved in 10% PEG300, 10% Solutol, 10% Cremophore EL, and 70% Phosphate Buffered Saline and administered intraperitoneal (i.p.) at a concentration of 1 mg/kg up to 30 mg/kg depending on the compound. Animals were euthanized one hour after compound administration via exsanguination under deep anesthesia. Blood was collected in EDTA tubes for downstream analysis of drug levels. Brains were rapidly removed from the skull, and the cerebral cortex and cerebellum were regionally dissected. Cerebellar samples were snap frozen in liquid nitrogen to assess compound exposure.
(§5) Quantification of compound exposure. Cerebellar tissue samples were homogenized in 4 mL of 20% acetonitrile and 80% Phosphate buffered saline for every 1 g of tissue (5× dilution). Tissue was homogenized using either of the following three methods: hand held probe system, TissueLyser system with 5 mm steel bead at a frequency of 30 s^−1 for 4 min, or OMNI Bead Ruptor Elite homogenizer for 30 seconds to 1 minute depending on tissue type. Tissue samples were added to a 96-well plate (12.5 μL sample) and processed for quantification by mass spectrometry.
In data set [3] the target is T1, human Cav1.2. Nature of the data set: Sophion QPatch whole-cell voltage clamp dose-response assay, Cav1.2-HEK293(AUX) cell line (barium currents). Particulars: for QPatch Emax: maximal fold change of peak inward current; for EC50: QPatch EC50, 6-point dose response, 20-ms pulses from −80 mV to 0 mV, n = 1 unless marked (* n = 2, # n = 3). On the technique in general: Patch clamp records ionic current or voltage across a cell membrane.
Procedure: as §1, §2, §3

Data set [4] addresses T1, human Cav1.2. Nature of the data set: QPatch channel biophysics assay (current-voltage relationship, V1/2, tau of inactivation), Cav1.2-HEK293(AUX) cell line. Particulars: shift of half-way channel activation voltage (V1/2). Set-up: expressed in transfected cells; host or cells: Flp-In 293 T-Rex (HEK293), clone 2-19B, stably transfected with pCMV6-entry-CACNA1C and pcDNA5H/FRT-TO-CACNA2D2-FCS-P2A-CACNB2. Type of data set: cell-based. The method, then: Clonal isolation was achieved under Neomycin selection.
Each experimental run uses 1.5 mL of cells.
The protocol had eight liquid periods. […] The protocol had four liquid periods.

Data set [5] in a line: Compound exposure in wild-type mice (cerebellum and blood, mass spectrometry). The following applies: male, C57BL/6J, mouse, brain (cerebellum) and whole blood, ip.
Procedure: as §4, §5

Where two headings read alike, the source gives them in different places.

The values below come from patent US11453679B2, “Methyl 2-methyl-5-oxo-1,4,5,7-tetradhydrofuro[3,4-b]pyridine-3-carboxylate compounds as Cav1.2 activators” (Novartis AG, priority 2020, dated 2022).

Regarding `COC(=O)C1=C(C)NC2=C(C(=O)OC2)[C@H]1c1cccc(F)c1C1CC1(F)F` (single isomer, unassigned) [Example 2, Methyl (S)-4-(2-((S or R)-2.2-difluorocyclopropyl)-3-fluorophenyl)-2-methyl-5-oxo-1,4,5,7-tetrahydrofuro[3,4-b]pyridine-3-carboxylate], in the data set on cFos mRNA, the “% ↑cFOS mRNA cortex (3 mg/kg ip)” value worked out at 23% and the “% ↑cFOS mRNA cortex (10 mg/kg ip)” value amounted to 203%. The same compound had an EC50 at human Cav1.2 [1] of 170 nM. The “Brain:blood ratio” value in data set [2] stood at 3.4. Further, on human Cav1.2 [3], the “QPatch Emax” value is reported as 1.6. For the same compound, the Biophysics voltage shift on human Cav1.2 [4] is recorded as −1.9 mV.
With `COC(=O)C1=C(C)NC2=C(C(=O)OC2)[C@H]1c1cc(F)cc(F)c1[C@@H](C)F` (single isomer, unassigned) [Example 7, Methyl (S)-4-(3,5-difluoro-2-((S or R)-1-fluoroethyl)phenyl)-2-methyl-5-oxo-1,4,5,7-tetrahydrofuro[3,4-b]pyridine-3-carboxylate], the “% ↑cFOS mRNA cortex (3 mg/kg ip)” value in the data set on cFos mRNA is recorded as 158%. The compound also gave a Kp at 1 h in data set [5] of 1.7. Also, at human Cav1.2 [3], the EC50 was 30 nM and the “QPatch Emax” value is listed as 1.7. The Biophysics voltage shift on human Cav1.2 [4] is on record as −6.6 mV.
As to `C=C(c1c(F)cc(F)cc1[C@H]1C(C(=O)OC)=C(C)NC2=C1C(=O)OC2)C(F)(F)F` (single isomer, unassigned) [Example 19], the “% ↑cFOS mRNA cortex (3 mg/kg ip)” value in the data set with cFos mRNA was 138%. The Kp at 1 h in data set [5] turned out to be 2.9. Further, at human Cav1.2 [3], a half-maximal response (EC50) required 12 nM and the “QPatch Emax” value came out at 1.7. Moreover, the Biophysics voltage shift on human Cav1.2 [4] is −1.8 mV.
For `CCc1c(F)cccc1[C@H]1C(C(=O)OC)=C(C)NC2=C1C(=O)OC2` (single isomer, unassigned) [Example 13], in the data set with cFos mRNA, the “% ↑cFOS mRNA cortex (3 mg/kg ip)” value worked out at 165% and the “% ↑cFOS mRNA cortex (10 mg/kg ip)” value is on record as 281%. The compound further yielded a Kp at 1 h in data set [5] of 1. Moreover, at human Cav1.2 [3], the EC50 is 220 nM and the “QPatch Emax” value came out at 1.5. Further, the Biophysics voltage shift at human Cav1.2 [4] is listed as −4.8 mV.
Take `COC(=O)C1=C(C)NC2=C(C(=O)OC2)[C@H]1c1cccc(F)c1CC(F)(F)F` (single isomer, unassigned) [Example 9]: the “% ↑cFOS mRNA cortex (3 mg/kg ip)” value in the data set on cFos mRNA came out at 112%. Moreover, in data set [5], the Kp at 1 h stood at 2.3. For the same compound, on human Cav1.2 [3], the half-maximal effective concentration (EC50) turned out to be 130 nM and the “QPatch Emax” value is 1.5. The Biophysics voltage shift on human Cav1.2 [4] is on record as −6.6 mV.
For `C=C(c1c(F)cccc1[C@H]1C(C(=O)OC)=C(C)NC2=C1C(=O)OC2)C(F)(F)F` [Example 16, (S)-methyl 4-(3-fluoro-2-(3,3,3-trifluoroprop-1-en-2-yl)phenyl)-2-methyl-5-oxo-1,4,5,7-tetrahydrofuro[3,4-b]pyridine-3-carboxylate] the same measures were 121%, 0.6, 4 nM, 1.5 and −3.3 mV.

Usually EC50 stands for the concentration giving half of the maximal effect. Broadly, the Kp is the ratio of the level in a tissue or fluid to that in plasma or blood.
